Test results reported in patent publication US20250145637A1, “SULFONAMIDE DERIVATIVE, PREPARATION METHOD THEREFOR AND MEDICAL USE THEREOF” (Jiangsu Hengrui Pharmaceuticals Co. Ltd., priority 2021, published 2025).

Legend:
[1] = Pharmacokinetic evaluation in SD rats; assay type: in vivo; conditions: both sexes, rat, plasma, po, i.g., 2.0 mg/kg; for Vd/F: read-out: Apparent distribution volume Vz/F; for AUC(0-t): read-out: Area under curve AUC0-t; for CL/F: read-out: Clearance rate CL/F; for half-life: read-out: Half-life T½ (converted); for Cmax: read-out: Plasma concentration Cmax
Description: Test Example 5: Pharmacokinetic Evaluation
(§1) SD rats were used as test animals. After intragastric (i.g.) administration of the compounds of the present disclosure to SD rats, the plasma concentrations at different time points were measured by the LC/MS/MS method. The pharmacokinetic behavior of the compounds of the present disclosure in SD rats was studied, and their pharmacokinetic profiles were evaluated.
Compound 2, compound 7, compound 21, and compound 23.
16 SD rats, of which half were male and half female, were evenly divided into 4 groups. The rats were provided by Vital River Laboratory Animal Technology Co., Ltd. The rats were fasted overnight and intragastrically administered the compounds.
(§2) 2.3. Compound Solution Preparation
A certain amount of test compound was weighed out and dissolved in 5% DMSO+5% tween 80+90% normal saline to prepare a 0.2 mg/mL colorless clear solution.
The dose administered was 2.0 mg/kg, and the volume was 10.0 mL/kg.
(§3) 0.1 mL blood samples were collected from the orbit before the administration and 0.25 h, 0.5 h, 1.0 h, 2.0 h, 4.0 h, 6.0 h, 8.0 h, 11.0 h and 24.0 h post-dose. The blood samples were placed into EDTA-K2 anticoagulation tubes and centrifuged at 10,000 rpm for 1 min (4° C.), and plasma was separated within 1 h and stored at −20° C. before analysis. The process from the blood collection to the centrifugation was performed in an ice bath. Access to food was given 2 h post-dose.
Measurement of plasma concentrations in SD rats after compounds were administered in different concentrations: 25 μL samples of the SD rat plasma collected at various time points post-dose were taken, and to each of the samples was added 25 μL of camptothecin (an internal standard for compound 2, 100 ng/mL) or 50 μL of tolbutamide (an internal standard for compound 7, 100 ng/mL) or 50 μL of verapamil (an internal standard for compounds 21 and 23, 100 ng/mL). Protein was precipitated with 200 μL of acetonitrile, and after 5 min of vortexing, the mixtures were centrifuged at 3700 rpm for 10 min. 120 µL of supernatant was taken and vortexed with 30 μL of water for 5 min, and a 5 μL sample was taken for LC/MS/MS analysis.

[2] = Pharmacokinetic evaluation in C57 mice; assay type: in vivo; conditions: for Vd / AUC(0-t) / half-life / Cmax / bioavailability / CL/F: both sexes, mouse, plasma; for Vd: read-out: Apparent distribution volume Vss; for AUC(0-t): read-out: Area under curve AUC0-t; for half-life: read-out: Half-life T½ (converted); for Cmax: read-out: Plasma concentration Cmax; for bioavailability: oral, i.g. 2.0 mg/kg vs i.v. 1.0 mg/kg, read-out: Bioavailability F (%); for CL/F: read-out: Clearance rate CL/F; for Clearance rate CL/F: i.v.
Description: as §1, with “C57 mice” for “SD rats”, “(i.g.)/intravenous (i.v.)” for “(i.g.)”, “C57 mice,” for “SD rats,”, “studied” for “studied,”
Compound 2 and compound 3.
36 C57 mice, of which half were male and half female, were evenly divided into 4 groups of 9, 3 mice per time point per group. The mice were provided by Vital River Laboratory Animal Technology Co., Ltd. The mice were intragastrically and intravenously administered the compounds.
as §2
A certain amount of test compound was weighed out and dissolved in 5% DMSO+5% tween 80+90% normal saline to prepare a 0.1 mg/mL colorless clear solution (for the intragastric administration groups) and a 0.1 mg/mL colorless clear solution (for the intravenous administration groups).
Intragastric administration groups: The dose was 2.0 mg/kg, and the volume was 0.2 mL/10 g.
Intravenous administration groups: The dose was 1.0 mg/kg, and the volume was 0.1 mL/10 g.
as §3, with “Intragastric administration groups: 0.1” for “0.1”, “collected” for “collected from the orbit”, “−80°” for “−20°”, “bath.” for “bath. Access to food was given 2 h post-dose.”
Intravenous administration groups: Blood samples were collected before administration and 5 min, 0.25 h, 0.5 h, 1.0 h, 2.0 h, 4.0 h, 8.0 h, 11.0 h and 24 h post-dose and were treated in the same way as those collected from the intragastric administration groups.
Measurement of plasma concentrations in C57 mice after compounds were administered in different concentrations: 25 μL samples of the C57 mouse plasma collected at various time points post-dose were taken, and to each of the samples was added 50 μL of diclofenac (an internal standard for compound 2, 100 ng/mL) or 25 μL of tolbutamide (an internal standard for compound 3, […], purchased from LGC Ltd., UK). Protein was precipitated with 200 μL of acetonitrile, and after 5 min of vortexing, the mixtures were centrifuged at 3700 rpm for 10 min. 120 μL of supernatant was taken and vortexed with 30 μL of water for 5 min, and a 5 μL sample was taken for LC/MS/MS analysis. 4. Pharmacokinetic parameters

| Vd/F [1] [L/kg] | AUC(0-t) [1] [µg·h/mL] | CL/F [1] [mL/min/kg] | half-life [1] [h] | Cmax [1] [ng/mL] | Vd ([2]; iv, 1.0 mg/kg) [L/kg] | AUC(0-t) ([2]; iv, 1.0 mg/kg) [µg·h/mL] | half-life ([2]; iv, 1.0 mg/kg) [h] | Cmax ([2]; iv, 1.0 mg/kg) [ng/mL] | bioavailability [2] [%] | AUC(0-t) ([2]; po, i.g., 2.0 mg/kg) [µg·h/mL] | CL/F ([2]; po, i.g., 2.0 mg/kg) [mL/min/kg] | half-life ([2]; po, i.g., 2.0 mg/kg) [h] | Cmax ([2]; po, i.g., 2.0 mg/kg) [ng/mL] | Clearance rate CL/F ([2]; 1.0 mg/kg) [mL/min/kg] | SMILES |
| --- | --- | --- | --- | --- | --- | --- | --- | --- | --- | --- | --- | --- | --- | --- | --- |
| 0.25 | 81.3 | 0.614 | 6.71 | 9200 |  |  |  |  |  |  |  |  |  |  | CCOc1cc(C)ccc1S(=O)(=O)Nc1noc2cc(Cn3cccn3)c3c(c12)OCCC3 [Compound 7, N-(5-((1H-pyrazol-1-yl)methyl)-3,4-dihydro-2H-chromeno[8,7-d]isoxazol-9-yl)-2-ethoxy-4-methylbenzenesulfonamide] |
| 0.47 | 61.2 | 0.431 | 13.7 | 6240 |  |  |  |  |  |  |  |  |  |  | COc1cccc(OC(F)(F)F)c1S(=O)(=O)Nc1noc2cc(Cn3cccn3)c3c(c12)OCC3 [Compound 23, N-(4-((1H-pyrazol-1-yl)methyl)-2,3-dihydrobenzofuro[7,6-d]isoxazol-8-yl)-2-methoxy-6-(trifluoromethoxy)benzenesulfonamide] |
| 0.202 | 43.3 | 0.8 | 2.96 | 8210 | 0.093 | 188 | 18.4 | 17600 | 108 | 405 | 0.033 | 29.7 | 40100 | 0.0504 | COc1cccc(OC)c1S(=O)(=O)Nc1noc2cc(Cn3cccn3)c3c(c12)OCCC3 [Compound 2, N-(5-((1H-pyrazol-1-yl)methyl)-3,4-dihydro-2H-chromeno[8,7-d]isoxazol-9-yl)-2,6-dimethoxybenzenesulfonamide] |
|  |  |  |  |  | 0.102 | 209 | 49 | 22100 | 94.1 | 393 | 0.0225 | 58.3 | 33000 | 0.0251 | COc1ccccc1S(=O)(=O)Nc1noc2cc(Cn3cccn3)c3c(c12)OCCC3 [Compound 3, N-(5-((1H-pyrazol-1-yl)methyl)-3,4-dihydro-2H-chromeno[8,7-d]isoxazol-9-yl)-2-methoxybenzenesulfonamide] |
